Data as given in US5602101A, “Antithrombotic agents” (priority 1994, dated 1997).

Each compound was assayed against T1, Human plasmin (Homo sapiens, UniProt P00747) (assay: Serine protease inhibition, plasmin (chromogenic substrate), Kass). Conditions: substrate H-D-Val-Leu-Lys-p-nitroanilide.
T1 construct: Human plasmin is purchased from Boehringer Mannheim, Indianapolis, Ind; purchased Boehringer Mannheim, Indianapolis, Ind
Type: biochemical
Procedure: (§1) The assay is carried out by mixing 50 μl buffer (0.03M Tris, 0.15M NaCl, pH 7.4), 25 μl of human thrombin solution (purified human thrombin Enzyme Research Laboratories, South Bend, Ind.) at 8 NIH units/ml and 25 μl of test compound in a solvent (50% aqueous methanol (v:v)). Then 150 μl of an aqueous solution of the chromogenic substrate (at 0.25 mg/ml) are added and the rates of hydrolysis of the substrate are measured by monitoring the reactions at 405 nm for the release of p-nitroaniline. Standard curves are constructed by plotting free thrombin concentration against hydrolysis rate. The hydrolysis rates observed with test compounds are then converted to "free thrombin" values in the respective assays by use of the standard curves. The bound thrombin (bound to test compound) is calculated by subtracting the amount of free thrombin observed in each assay from the known initial amount of thrombin used in the assay. The amount of free inhibitor in each assay is calculated by subtracting the number of moles of bound thrombin from the number of moles of added inhibitor (test compound).
(§2) Kass is calculated for a range of concentrations of test compounds and the mean value is reported in units of liter per mole.
(§3) By substantially following the procedures described above for human thrombin, and using other human blood coagulation system serine proteases, and using fibrinolytic system serine proteases, with the appropriate chromogenic substrate, identified below, selectivity of the compounds of the present invention with respect to the coagulation factor serine proteases and to the fibrinolytic serine proteases are evaluated as well as their substantial lack of interference with human plasma clot fibrinolysis.
(§4) Human factors X, Xa, IXa, XIa, and xIIa are purchased from Enzyme Research Laboratories, South Bend, Ind.; human urokinase from Leo Pharmaceuticals, Denmark; and recombinant activated Protein C (aPC) is prepared at Eli Lilly and Co. substantially according to U.S. Pat. No. 4,981,952 incorporated by reference herein in its entirety. Chromogenic substrates: N-Benzoyl-Ile-Glu-Gly-Arg-p-nitroanilide (for factor Xa); N-Cbz-D-Arg-Gly-Arg-p-nitroanilide (for factor IXa assay as the factor Xa substrate) pyroglutamyl-Pro-Arg-p-nitroanilide (for factor XIa and for aPC); H-D-Pro-Phe-Arg-p-nitroanilide (for factor XIIa); and pyroglutamyl-Gly-Arg-p-nitroanilide (for urokinase); are purchased from KabiVitrum, Stockholm, Sweden, or from Midwest Biotech, Fishers, Indiana. Bovine trypsin is purchased from Worthington Biochemicals, Freehold, N.J., and human plasma kallikrein from Kabi Vitrum, Stockholm, Sweden. N-Benzoyl-Phe-Val-Arg-p-nitroanilide, the substrate for human thrombin and for trypsin, is synthesized according to procedures described above for the compounds of the present invention, known methods of peptide coupling from commercially available reactants, or was purchased from Midwest Biotech, Fishers, Ind. Human plasmin is purchased from Boehringer Mannheim, Indianapolis, Ind.; nt-PA is purchased as single chain activity reference from American Diagnostics, Greenwich, Conn.; modified-t-PA6 (mt-PA6) is prepared at Eli Lilly and Company by procedure known in the art (See, Burck, et al., J. Biol. Chem., 265, […] (1990). Plasmin chromogenic substrate H-D-Val-Leu-Lys-p-nitroanilide and tissue plasminegen activator (t-PA) substrate H-D-Ile-Pro-Arg-p-nitroanilide are purchased from Kabi Vitrum, Stockholm, Sweden.

T1 sequence (P00747 581-810 limits assumed): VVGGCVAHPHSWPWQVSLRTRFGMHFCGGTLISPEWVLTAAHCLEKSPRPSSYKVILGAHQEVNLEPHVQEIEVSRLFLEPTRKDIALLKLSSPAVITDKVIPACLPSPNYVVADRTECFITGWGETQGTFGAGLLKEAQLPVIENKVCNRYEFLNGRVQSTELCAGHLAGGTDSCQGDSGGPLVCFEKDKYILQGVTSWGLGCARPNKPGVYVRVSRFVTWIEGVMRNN
T1 sequence (P00747 97-580 partner limits assumed): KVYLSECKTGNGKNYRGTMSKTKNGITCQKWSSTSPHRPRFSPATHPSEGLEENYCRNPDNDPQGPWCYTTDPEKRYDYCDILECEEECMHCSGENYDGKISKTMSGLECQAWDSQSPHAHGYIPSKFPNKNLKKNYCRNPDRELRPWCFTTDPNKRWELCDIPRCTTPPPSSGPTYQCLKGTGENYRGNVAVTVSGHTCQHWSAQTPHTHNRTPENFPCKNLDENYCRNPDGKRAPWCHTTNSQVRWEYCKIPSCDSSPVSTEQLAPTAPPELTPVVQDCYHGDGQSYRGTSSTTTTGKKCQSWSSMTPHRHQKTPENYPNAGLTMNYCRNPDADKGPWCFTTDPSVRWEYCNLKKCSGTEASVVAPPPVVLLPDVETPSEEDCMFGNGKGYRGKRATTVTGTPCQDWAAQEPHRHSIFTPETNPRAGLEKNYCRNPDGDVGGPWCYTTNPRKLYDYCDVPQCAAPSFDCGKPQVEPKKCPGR

Structure (SMILES)	Enzyme Kass, Plasmin [L/mol × 10^6]
Cl.N=C(N)NCCC[C@@H](C=O)NC(=O)[C@@H]1CCCN1C(=O)[C@@H](Cc1ccccc1)NS(=O)(=O)c1nccs1 [Example 19, 2-Thiazolyl-SO2 -D-Phe-Pro-Arg-H-HCl]	3.4
CCS(=O)(=O)N[C@@H](C(=O)N1CCC[C@H]1C(=O)N[C@H](C=O)CCCNC(=N)N)c1ccccc1.Cl [Example 20, EtSO2 -D-Phg-Pro-Arg-H.HCl]	14
CCS(=O)(=O)N[C@@H](C(=O)N1CCC[C@H]1C(=O)N[C@H](C=O)CCCNC(=N)N)C1CCCCC1.Cl [Example 22, EtSO2 -D-Chg-Pro-Arg-H.HCl]	13

What follows are compounds tested on Human Plasma (assay: Anticoagulation in human plasma, prothrombin time (PT)). Conditions: concentration required to double the PT.
Type: biochemical
Procedure: (§5) Dog plasma and rat plasma are obtained from conscious mixed-breed hounds (either sex, Hazelton-LRE, Kalamazoo, Mich., U.S.A.) or from anesthetized male Sprague-Dawley rats (Harlan Sprague-Dawley, Inc., Indianapolis, Ind., U.S.A.) by venipuncture into 3.8 percent citrate. Fibrinogen is prepared from in-date ACD human blood as the fraction I-2 according to previous procedures and specifications. Smith, Biochem. Chem. […] Human fibrinogen is also purchased as 98 percent pure/plasmin free from American Diagnostics, Greenwich, Conn. Coagulation reagents ACTIN, Thromboplastin, and Human plasma are from Baxter Healthcare Corp., Dade Division, Miami, Fla. Bovine thrombin from Parke-Davis (Ann Arbor, Mich.) is used for coagulation assays in plasma. Coagulation assay procedures are as previously described. Smith, et al., Thrombosis Research, 5, 163-174 (1988). A CoAScreener coagulation instrument (American LABor, Inc.) is used for all coagulation assay measurements. The prothrombin time (PT) is measured by adding 0.05 ml saline and 0.05 ml Thromboplastin-C reagent to 0.05 ml test plasma. The activated partial thromboplastin time (APTT) is measured by incubation of 0.05 ml test plasma with 0.05 ml Actin reagent for 120 seconds followed by 0.05 ml CaCl2 (0.02M). […] The compounds of formula I are added to human or animal plasma over a wide range of concentrations to determine prolongation effects on the APTT, PT, and TT assays. Linear extrapolations are performed to estimate the concentrations required to double the clotting time for each assay.

Structure (SMILES)	2 × Clotting time, PT
Cl.N=C(N)NCCC[C@@H](C=O)NC(=O)[C@@H]1CCCN1C(=O)[C@@H](Cc1ccccc1)NS(=O)(=O)c1nccs1 [Example 19, 2-Thiazolyl-SO2 -D-Phe-Pro-Arg-H-HCl]	2,900 ng/ML
CCS(=O)(=O)N[C@@H](C(=O)N1CCC[C@H]1C(=O)N[C@H](C=O)CCCNC(=N)N)c1ccccc1.Cl [Example 20, EtSO2 -D-Phg-Pro-Arg-H.HCl]	880 ng/mL
CCS(=O)(=O)N[C@@H](C(=O)N1CCC[C@H]1C(=O)N[C@H](C=O)CCCNC(=N)N)C1CCCCC1.Cl [Example 22, EtSO2 -D-Chg-Pro-Arg-H.HCl]	1,100 ng/ML

What follows are compounds tested on Human Plasma (assay: Anticoagulation in human plasma, thrombin time (TT)). Conditions: concentration required to double the thrombin time.
Type: biochemical
Procedure: as §5

Structure (SMILES)	2 × Clotting time, TT [ng/mL]
Cl.N=C(N)NCCC[C@@H](C=O)NC(=O)[C@@H]1CCCN1C(=O)[C@@H](Cc1ccccc1)NS(=O)(=O)c1nccs1 [Example 19, 2-Thiazolyl-SO2 -D-Phe-Pro-Arg-H-HCl]	66
CCS(=O)(=O)N[C@@H](C(=O)N1CCC[C@H]1C(=O)N[C@H](C=O)CCCNC(=N)N)c1ccccc1.Cl [Example 20, EtSO2 -D-Phg-Pro-Arg-H.HCl]	34
CCS(=O)(=O)N[C@@H](C(=O)N1CCC[C@H]1C(=O)N[C@H](C=O)CCCNC(=N)N)C1CCCCC1.Cl [Example 22, EtSO2 -D-Chg-Pro-Arg-H.HCl]	46

Each compound was assayed on Human Plasma (assay: Anticoagulation in human plasma, activated partial thromboplastin time (APTT)). Conditions: concentration required to double the APTT.
Type: biochemical
Procedure: as §5

Structure (SMILES)	2 × Clotting time, APTT [ng/mL]
Cl.N=C(N)NCCC[C@@H](C=O)NC(=O)[C@@H]1CCCN1C(=O)[C@@H](Cc1ccccc1)NS(=O)(=O)c1nccs1 [Example 19, 2-Thiazolyl-SO2 -D-Phe-Pro-Arg-H-HCl]	810
CCS(=O)(=O)N[C@@H](C(=O)N1CCC[C@H]1C(=O)N[C@H](C=O)CCCNC(=N)N)c1ccccc1.Cl [Example 20, EtSO2 -D-Phg-Pro-Arg-H.HCl]	250
CCS(=O)(=O)N[C@@H](C(=O)N1CCC[C@H]1C(=O)N[C@H](C=O)CCCNC(=N)N)C1CCCCC1.Cl [Example 22, EtSO2 -D-Chg-Pro-Arg-H.HCl]	330

Each compound was assayed against T2, tissue plasminogen activator (t-PA) (Homo sapiens, UniProt P00750) (assay: Serine protease inhibition, t-PA (chromogenic substrate), Kass). Conditions: substrate H-D-Ile-Pro-Arg-p-nitroanilide.
T2 construct: purchased American Diagnostics, Greenwich, Conn
T2 sequence (P00750 36-562): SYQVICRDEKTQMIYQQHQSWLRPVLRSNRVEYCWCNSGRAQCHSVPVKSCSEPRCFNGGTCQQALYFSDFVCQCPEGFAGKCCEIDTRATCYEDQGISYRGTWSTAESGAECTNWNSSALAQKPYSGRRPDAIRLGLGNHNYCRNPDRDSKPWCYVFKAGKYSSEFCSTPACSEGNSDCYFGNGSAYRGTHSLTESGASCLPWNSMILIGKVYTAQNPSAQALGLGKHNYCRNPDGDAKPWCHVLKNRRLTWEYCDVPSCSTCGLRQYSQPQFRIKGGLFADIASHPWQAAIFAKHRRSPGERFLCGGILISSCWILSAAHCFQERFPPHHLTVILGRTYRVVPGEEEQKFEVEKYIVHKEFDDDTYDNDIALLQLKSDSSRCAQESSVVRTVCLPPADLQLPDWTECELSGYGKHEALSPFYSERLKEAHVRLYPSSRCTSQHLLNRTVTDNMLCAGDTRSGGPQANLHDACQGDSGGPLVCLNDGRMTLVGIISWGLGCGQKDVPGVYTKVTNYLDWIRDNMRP
Type: biochemical
Procedure: as §1, §2, §3, §4

Structure (SMILES)	Enzyme Kass, t-Pa [L/mol × 10^6]
Cl.N=C(N)NCCC[C@@H](C=O)NC(=O)[C@@H]1CCCN1C(=O)[C@@H](Cc1ccccc1)NS(=O)(=O)c1nccs1 [Example 19, 2-Thiazolyl-SO2 -D-Phe-Pro-Arg-H-HCl]	0.31
CCS(=O)(=O)N[C@@H](C(=O)N1CCC[C@H]1C(=O)N[C@H](C=O)CCCNC(=N)N)c1ccccc1.Cl [Example 20, EtSO2 -D-Phg-Pro-Arg-H.HCl]	0.34
CCS(=O)(=O)N[C@@H](C(=O)N1CCC[C@H]1C(=O)N[C@H](C=O)CCCNC(=N)N)C1CCCCC1.Cl [Example 22, EtSO2 -D-Chg-Pro-Arg-H.HCl]	0.11

The compounds below were run against T3, Bovine trypsin (Bos taurus, UniProt P00760) (assay: Serine protease inhibition, trypsin (chromogenic substrate), Kass). Conditions: substrate N-Benzoyl-Phe-Val-Arg-p-nitroanilide.
T3 construct: Bovine trypsin is purchased from Worthington Biochemicals, Freehold, N.J; purchased Worthington Biochemicals, Freehold, N.J
T3 sequence (P00760 24-246): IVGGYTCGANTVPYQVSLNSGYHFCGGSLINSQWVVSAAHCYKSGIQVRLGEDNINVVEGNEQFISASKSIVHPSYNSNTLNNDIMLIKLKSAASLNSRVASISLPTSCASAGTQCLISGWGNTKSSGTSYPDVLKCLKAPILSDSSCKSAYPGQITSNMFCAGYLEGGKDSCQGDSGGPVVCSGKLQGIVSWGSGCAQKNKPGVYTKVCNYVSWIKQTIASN
Type: biochemical
Procedure: as §1, §2, §3, §4

Structure (SMILES)	Enzyme Kass, Trypsin [L/mol × 10^6]
Cl.N=C(N)NCCC[C@@H](C=O)NC(=O)[C@@H]1CCCN1C(=O)[C@@H](Cc1ccccc1)NS(=O)(=O)c1nccs1 [Example 19, 2-Thiazolyl-SO2 -D-Phe-Pro-Arg-H-HCl]	52
CCS(=O)(=O)N[C@@H](C(=O)N1CCC[C@H]1C(=O)N[C@H](C=O)CCCNC(=N)N)c1ccccc1.Cl [Example 20, EtSO2 -D-Phg-Pro-Arg-H.HCl]	160
CCS(=O)(=O)N[C@@H](C(=O)N1CCC[C@H]1C(=O)N[C@H](C=O)CCCNC(=N)N)C1CCCCC1.Cl [Example 22, EtSO2 -D-Chg-Pro-Arg-H.HCl]	260

What follows are compounds tested against T4, factor Xa (Homo sapiens, UniProt P00742) (assay: Serine protease inhibition, factor Xa (chromogenic substrate), Kass). Conditions: substrate N-Benzoyl-Ile-Glu-Gly-Arg-p-nitroanilide.
T4 construct: Human factors X, Xa, IXa, XIa, and xIIa are purchased from Enzyme Research Laboratories; purchased Enzyme Research Laboratories, South Bend, Ind
T4 sequence (P00742 235-488 limits assumed): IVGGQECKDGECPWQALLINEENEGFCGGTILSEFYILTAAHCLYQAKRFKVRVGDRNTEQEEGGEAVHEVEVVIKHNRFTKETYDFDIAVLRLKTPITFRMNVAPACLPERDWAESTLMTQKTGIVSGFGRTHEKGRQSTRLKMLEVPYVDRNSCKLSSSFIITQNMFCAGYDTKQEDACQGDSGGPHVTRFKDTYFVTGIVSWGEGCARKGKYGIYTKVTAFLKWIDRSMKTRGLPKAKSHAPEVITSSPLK
T4 sequence (P00742 41-179 partner limits assumed): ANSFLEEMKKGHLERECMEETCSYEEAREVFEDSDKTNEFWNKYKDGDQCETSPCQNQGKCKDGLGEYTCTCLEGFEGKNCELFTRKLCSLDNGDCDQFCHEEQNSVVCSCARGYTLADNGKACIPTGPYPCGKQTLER
Type: biochemical
Procedure: as §1, §2, §3, §4

Structure (SMILES)	Enzyme Kass, Xa [L/mol × 10^6]
Cl.N=C(N)NCCC[C@@H](C=O)NC(=O)[C@@H]1CCCN1C(=O)[C@@H](Cc1ccccc1)NS(=O)(=O)c1nccs1 [Example 19, 2-Thiazolyl-SO2 -D-Phe-Pro-Arg-H-HCl]	2.8
CCS(=O)(=O)N[C@@H](C(=O)N1CCC[C@H]1C(=O)N[C@H](C=O)CCCNC(=N)N)c1ccccc1.Cl [Example 20, EtSO2 -D-Phg-Pro-Arg-H.HCl]	45
CCS(=O)(=O)N[C@@H](C(=O)N1CCC[C@H]1C(=O)N[C@H](C=O)CCCNC(=N)N)C1CCCCC1.Cl [Example 22, EtSO2 -D-Chg-Pro-Arg-H.HCl]	24

The compounds below were run against T5, human thrombin (Homo sapiens, UniProt P00734) (assay: Inhibition of amidase activity of thrombin (chromogenic substrate), Kass). Conditions: substrate N-benzoyl-Phe-Val-Arg-p-nitroanilide, pH 7.4.
T5 construct: purified human thrombin Enzyme Research Laboratories, South Bend, Ind; purchased Enzyme Research Laboratories, South Bend, Ind
Type: biochemical
Procedure: as §1
The Kass value is the hypothetical equilibrium constant for the reaction between thrombin and the test compound (I). [drawing 53]
as §2

Structure (SMILES)	Enzyme Kass, Human Thrombin [L/mol × 10^6]
Cl.N=C(N)NCCC[C@@H](C=O)NC(=O)[C@@H]1CCCN1C(=O)[C@@H](Cc1ccccc1)NS(=O)(=O)c1nccs1 [Example 19, 2-Thiazolyl-SO2 -D-Phe-Pro-Arg-H-HCl]	68
CCS(=O)(=O)N[C@@H](C(=O)N1CCC[C@H]1C(=O)N[C@H](C=O)CCCNC(=N)N)c1ccccc1.Cl [Example 20, EtSO2 -D-Phg-Pro-Arg-H.HCl]	510
CCS(=O)(=O)N[C@@H](C(=O)N1CCC[C@H]1C(=O)N[C@H](C=O)CCCNC(=N)N)C1CCCCC1.Cl [Example 22, EtSO2 -D-Chg-Pro-Arg-H.HCl]	260
